Assay results from PMC7083837 (Nature Communications, 2020).
Values joined by “and” are separate entries in the source; they are usually repeats but may differ in a detail not shown here. Equal values may be shown once.

Columns and labels:
SERT A486E-K490A = molecular target: T1, SERT A486E-K490A (Homo sapiens, UniProt P31645, A486E/K490A); assay: [3H]IMI dissociation rate assay; assay type: binding; details: for [^3H]IMI dissociation relative to control (source data Fig 4B): A486E-K490A
T1 construct: expressed in transfected cells; host or cells: COS-7
T1 sequence (P31645 whole entry A486E/K490A): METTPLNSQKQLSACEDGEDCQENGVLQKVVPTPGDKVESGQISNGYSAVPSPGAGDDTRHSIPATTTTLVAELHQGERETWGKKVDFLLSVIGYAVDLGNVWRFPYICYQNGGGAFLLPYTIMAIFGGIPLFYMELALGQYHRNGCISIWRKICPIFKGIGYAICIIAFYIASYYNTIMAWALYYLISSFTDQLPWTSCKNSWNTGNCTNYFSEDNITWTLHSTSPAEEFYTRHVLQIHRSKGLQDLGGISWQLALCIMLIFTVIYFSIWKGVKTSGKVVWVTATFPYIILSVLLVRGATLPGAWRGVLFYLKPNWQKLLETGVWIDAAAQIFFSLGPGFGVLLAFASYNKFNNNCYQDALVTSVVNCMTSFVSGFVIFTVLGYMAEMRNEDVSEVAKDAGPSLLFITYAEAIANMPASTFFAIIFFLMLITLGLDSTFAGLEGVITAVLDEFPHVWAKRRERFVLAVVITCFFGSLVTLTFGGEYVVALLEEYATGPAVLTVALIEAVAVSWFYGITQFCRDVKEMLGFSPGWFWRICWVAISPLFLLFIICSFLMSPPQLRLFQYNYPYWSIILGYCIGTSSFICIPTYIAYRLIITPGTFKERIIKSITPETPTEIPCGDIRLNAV
Procedure: (§1) All mutations were confirmed by DNA sequencing. The used primers were
(§2) The allosteric potency was calculated as previously described.

SERT D328N = molecular target: T2, SERT D328N (Homo sapiens, UniProt P31645, D328N); assay: [3H]IMI dissociation rate assay; assay type: binding
T2 construct: expressed in transfected cells; host or cells: COS-7
T2 sequence (P31645 whole entry D328N): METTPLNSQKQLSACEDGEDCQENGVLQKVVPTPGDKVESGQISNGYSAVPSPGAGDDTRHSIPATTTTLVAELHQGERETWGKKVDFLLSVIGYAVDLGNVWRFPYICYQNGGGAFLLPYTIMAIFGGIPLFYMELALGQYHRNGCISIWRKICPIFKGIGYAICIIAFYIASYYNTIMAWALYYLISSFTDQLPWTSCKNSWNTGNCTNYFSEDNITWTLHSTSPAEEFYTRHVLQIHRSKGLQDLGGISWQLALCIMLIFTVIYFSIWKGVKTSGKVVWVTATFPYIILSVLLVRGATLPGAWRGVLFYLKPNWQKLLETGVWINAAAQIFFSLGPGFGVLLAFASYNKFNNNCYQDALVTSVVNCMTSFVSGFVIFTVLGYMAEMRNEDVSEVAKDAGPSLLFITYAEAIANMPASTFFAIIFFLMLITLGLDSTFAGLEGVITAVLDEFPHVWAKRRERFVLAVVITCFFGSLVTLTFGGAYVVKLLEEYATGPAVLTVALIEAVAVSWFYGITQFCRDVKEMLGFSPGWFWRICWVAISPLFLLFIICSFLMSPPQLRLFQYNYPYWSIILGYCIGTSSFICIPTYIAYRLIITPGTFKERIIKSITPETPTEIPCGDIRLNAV
Procedure: as §1, §2

SERT L406E = molecular target: T3, SERT L406E (Homo sapiens, UniProt P31645, L406E); assay: [3H]IMI dissociation rate assay; assay type: binding
T3 construct: expressed in transfected cells; host or cells: COS-7
T3 sequence (P31645 whole entry L406E): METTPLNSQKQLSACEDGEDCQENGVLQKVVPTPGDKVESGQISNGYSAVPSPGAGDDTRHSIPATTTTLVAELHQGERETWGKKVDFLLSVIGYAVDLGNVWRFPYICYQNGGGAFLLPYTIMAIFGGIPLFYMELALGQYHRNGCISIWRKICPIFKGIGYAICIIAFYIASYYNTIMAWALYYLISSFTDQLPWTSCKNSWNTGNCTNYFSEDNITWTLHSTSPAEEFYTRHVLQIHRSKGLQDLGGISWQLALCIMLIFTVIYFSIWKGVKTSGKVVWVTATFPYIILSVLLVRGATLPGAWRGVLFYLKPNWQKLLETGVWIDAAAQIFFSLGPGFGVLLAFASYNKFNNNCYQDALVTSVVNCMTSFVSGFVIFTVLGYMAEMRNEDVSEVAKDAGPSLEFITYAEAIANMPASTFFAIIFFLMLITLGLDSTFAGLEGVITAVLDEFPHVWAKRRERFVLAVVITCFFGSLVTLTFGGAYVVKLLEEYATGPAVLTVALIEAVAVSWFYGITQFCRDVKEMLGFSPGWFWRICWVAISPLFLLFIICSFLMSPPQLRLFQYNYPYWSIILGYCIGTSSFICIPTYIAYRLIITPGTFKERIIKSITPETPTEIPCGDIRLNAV
Procedure: as §1, §2

SERT E494K = molecular target: T4, SERT E494K (Homo sapiens, UniProt P31645, E494K); assay: [3H]IMI dissociation rate assay; assay type: binding
T4 construct: expressed in transfected cells; host or cells: COS-7
T4 sequence (P31645 whole entry E494K): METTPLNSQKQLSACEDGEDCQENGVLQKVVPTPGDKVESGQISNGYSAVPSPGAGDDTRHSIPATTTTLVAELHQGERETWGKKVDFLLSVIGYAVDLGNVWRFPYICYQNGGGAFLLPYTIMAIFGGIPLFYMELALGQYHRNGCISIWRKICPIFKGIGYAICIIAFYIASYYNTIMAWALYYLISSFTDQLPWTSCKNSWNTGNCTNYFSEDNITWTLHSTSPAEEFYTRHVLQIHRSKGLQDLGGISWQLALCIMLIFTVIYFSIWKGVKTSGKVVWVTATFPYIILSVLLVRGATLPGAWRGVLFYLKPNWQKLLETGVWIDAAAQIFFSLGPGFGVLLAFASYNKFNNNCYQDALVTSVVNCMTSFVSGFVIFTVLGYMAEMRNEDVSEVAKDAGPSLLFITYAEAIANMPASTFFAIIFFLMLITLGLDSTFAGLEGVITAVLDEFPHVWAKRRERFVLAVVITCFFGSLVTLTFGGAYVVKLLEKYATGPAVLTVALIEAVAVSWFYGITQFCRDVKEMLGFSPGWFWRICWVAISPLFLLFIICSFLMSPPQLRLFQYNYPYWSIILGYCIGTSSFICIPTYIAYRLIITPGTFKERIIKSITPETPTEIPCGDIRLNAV
Procedure: as §1, §2

SERT WT [1] = molecular target: T5, SERT WT (Homo sapiens, UniProt P31645); assay: [3H]S-CIT competition (equilibrium) binding on COS-7 membranes;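 further: transiently transfected cell membranes incubated 1 h at room temperature with 5–10 nM [3H]S-CIT, nonspecific binding defined using 5 µM paroxetine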
T5 construct: expressed in transfected cells; host or cells: COS-7
T5 sequence (P31645 whole entry): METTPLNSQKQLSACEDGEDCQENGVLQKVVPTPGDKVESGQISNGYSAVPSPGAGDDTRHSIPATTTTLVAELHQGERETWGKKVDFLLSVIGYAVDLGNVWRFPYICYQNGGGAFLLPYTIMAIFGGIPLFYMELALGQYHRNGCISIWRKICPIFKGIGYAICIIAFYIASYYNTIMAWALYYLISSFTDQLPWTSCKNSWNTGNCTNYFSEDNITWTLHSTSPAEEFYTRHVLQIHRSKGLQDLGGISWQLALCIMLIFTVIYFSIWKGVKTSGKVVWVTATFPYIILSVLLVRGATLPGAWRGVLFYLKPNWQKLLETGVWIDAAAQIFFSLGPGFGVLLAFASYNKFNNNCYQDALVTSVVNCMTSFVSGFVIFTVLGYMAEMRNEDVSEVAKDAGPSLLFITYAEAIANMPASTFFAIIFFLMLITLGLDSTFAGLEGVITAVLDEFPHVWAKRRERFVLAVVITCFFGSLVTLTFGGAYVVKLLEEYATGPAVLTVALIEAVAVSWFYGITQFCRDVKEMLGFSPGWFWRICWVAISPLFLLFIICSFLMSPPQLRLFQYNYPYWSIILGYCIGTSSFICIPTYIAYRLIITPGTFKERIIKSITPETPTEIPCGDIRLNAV

SERT E494Q = molecular target: T6, SERT E494Q (Homo sapiens, UniProt P31645, E494Q); assay: [3H]IMI dissociation rate assay; assay type: binding
T6 construct: expressed in transfected cells; host or cells: COS-7
T6 sequence (P31645 whole entry E494Q): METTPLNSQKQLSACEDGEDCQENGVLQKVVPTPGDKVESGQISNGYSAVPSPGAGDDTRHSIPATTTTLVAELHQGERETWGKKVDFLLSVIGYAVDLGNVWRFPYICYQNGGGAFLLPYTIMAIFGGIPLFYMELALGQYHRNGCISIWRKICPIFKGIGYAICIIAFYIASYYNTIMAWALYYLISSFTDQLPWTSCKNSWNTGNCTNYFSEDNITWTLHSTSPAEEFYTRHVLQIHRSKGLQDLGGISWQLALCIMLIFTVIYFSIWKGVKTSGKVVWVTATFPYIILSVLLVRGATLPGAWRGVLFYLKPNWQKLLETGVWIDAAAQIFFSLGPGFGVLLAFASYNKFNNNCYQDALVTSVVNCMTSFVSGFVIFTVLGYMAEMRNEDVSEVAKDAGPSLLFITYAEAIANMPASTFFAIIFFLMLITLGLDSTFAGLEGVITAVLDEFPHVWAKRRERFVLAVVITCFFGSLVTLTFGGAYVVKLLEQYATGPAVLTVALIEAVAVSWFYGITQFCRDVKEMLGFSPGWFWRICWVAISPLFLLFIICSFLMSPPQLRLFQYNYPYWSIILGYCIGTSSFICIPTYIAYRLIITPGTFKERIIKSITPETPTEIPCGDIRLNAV

SERT WT [2] = molecular target: T5, SERT WT; assay: [3H]S-CIT dissociation rate assay (allosteric potency); assay type: binding

NC(=O)c1ccc2c(c1)CO[C@@]2(CCCN1CCC(c2ccc3ccc(=O)[nH]c3c2)CC1)c1ccc(F)cc1 [Lu AF60097, (S)-1-(4-fluorophenyl)-1-(3-(4-(2-oxo-1,2-dihydroquinolin-7-yl)piperidin-1-yl)propyl)-1,3-dihydroisobenzofuran-5-carboxamide]
[^3H]IMI dissociation relative to control (source data Fig 4B) (SERT A486E-K490A; log conc -4.955): 0.2089 and 0.1837 and 0.2062 | [^3H]IMI dissociation relative to control (source data Fig 4B) (SERT A486E-K490A; log conc -5.432): 0.4714 and 0.3471 and 0.3282 | [^3H]IMI dissociation relative to control (source data Fig 4B) (SERT A486E-K490A; log conc -5.91): 0.664 and 0.6181 and 0.6285 | [^3H]IMI dissociation relative to control (source data Fig 4B) (SERT A486E-K490A; log conc -6.386): 0.93 and 0.8402 and 0.7554 | [^3H]IMI dissociation relative to control (source data Fig 4B) (SERT A486E-K490A; log conc -6.863): 1.01 and 0.967 and 0.9554 | [^3H]IMI dissociation relative to control (source data Fig 4B) (SERT A486E-K490A; log conc -7.34): 1 and 1.03 and 0.8514 | [^3H]IMI dissociation relative to control (source data Fig 4B) (SERT A486E-K490A; log conc -7.817): 1.04 and 0.999 and 0.8949 | IC50 (SERT A486E-K490A; SERT A486E-K490A, read-out: Lu AF60097 allosteric potency ([^3H]IMI dissociation IC50)): 2400 nM | ΔAP (mut/WT), change in allosteric potency relative to SERT WT (SERT D328N; D328N, [^3H]IMI dissociation): 1.7 | IC50 (SERT D328N; SERT D328N (TM6), read-out: Lu AF60097 allosteric potency ([^3H]IMI dissociation IC50)): 54 nM | ΔAP (mut/WT), change in allosteric potency relative to SERT WT (SERT L406E; L406E, [^3H]IMI dissociation): 21 | [^3H]IMI dissociation relative to control (source data Fig 4B) (SERT L406E; L406E, log conc -5.91): 0.3505 and 0.3638 and 0.3072 | [^3H]IMI dissociation relative to control (source data Fig 4B) (SERT L406E; L406E, log conc -6.386): 0.6157 and 0.6402 and 0.5827 | [^3H]IMI dissociation relative to control (source data Fig 4B) (SERT L406E; L406E, log conc -6.863): 0.8533 and 0.8586 and 0.8107 | [^3H]IMI dissociation relative to control (source data Fig 4B) (SERT L406E; L406E, log conc -7.34): 0.9622 and 0.9861 and 1.0073 | [^3H]IMI dissociation relative to control (source data Fig 4B) (SERT L406E; L406E, log conc -7.817): 1.016 and 1.0012 and 1.0446 | IC50 (SERT L406E; SERT L406E (EL4), read-out: Lu AF60097 allosteric potency ([^3H]IMI dissociation IC50)): 650 nM | ΔAP (mut/WT), change in allosteric potency relative to SERT WT (SERT E494K; E494K, [^3H]IMI dissociation): 286 | [^3H]IMI dissociation relative to control (source data Fig 4B) (SERT E494K; E494K, log conc -5.432): 0.0801 and 0.1174 and 0.0764 | [^3H]IMI dissociation relative to control (source data Fig 4B) (SERT E494K; E494K, log conc -5.91): 0.1958 and 0.2217 and 0.1263 | [^3H]IMI dissociation relative to control (source data Fig 4B) (SERT E494K; E494K, log conc -6.386): 0.3078 and 0.3762 and 0.3174 | [^3H]IMI dissociation relative to control (source data Fig 4B) (SERT E494K; E494K, log conc -6.863): 0.5705 and 0.5743 and 0.4488 | [^3H]IMI dissociation relative to control (source data Fig 4B) (SERT E494K; E494K, log conc -7.34): 0.7153 and 0.7476 and 0.7791 | [^3H]IMI dissociation relative to control (source data Fig 4B) (SERT E494K; E494K, log conc -7.817): 0.8258 and 0.83 and 0.9008 | [^3H]IMI dissociation relative to control (source data Fig 4B) (SERT E494K; E494K, log conc -8.294): 0.8606 and 0.9262 and 0.8913 | IC50 (SERT E494K; SERT E494K (TM10), read-out: Lu AF60097 allosteric potency ([^3H]IMI dissociation IC50)): 8900 nM | IC50 (SERT WT [1]; COS-7 membranes, SERT WT, read-out: Inhibition of [^3H]S-CIT binding (IC50)): 270 nM | Displacement of [3H]S-CIT binding (normalized bound, Fig S6) (SERT WT [1]; log[Lu AF60097] -4.9586): 0.02221 and 0.02599 | Displacement of [3H]S-CIT binding (normalized bound, Fig S6) (SERT WT [1]; log[Lu AF60097] -6.4638): 0.4362 and 0.4819 and 0.2888 | Displacement of [3H]S-CIT binding (normalized bound, Fig S6) (SERT WT [1]; log[Lu AF60097] -6.7648): 0.6201 and 0.6384 and 0.4362 | Displacement of [3H]S-CIT binding (normalized bound, Fig S6) (SERT WT [1]; log[Lu AF60097] -7.0658): 0.7487 and 0.8379 and 0.6201 | Displacement of [3H]S-CIT binding (normalized bound, Fig S6) (SERT WT [1]; log[Lu AF60097] -7.3668): 0.8096 and 1.0297 and 0.7487 | Displacement of [3H]S-CIT binding (normalized bound, Fig S6) (SERT WT [1]; log[Lu AF60097] -7.6679): 0.9347 and 1.009 and 0.8096 | Displacement of [3H]S-CIT binding (normalized bound, Fig S6) (SERT WT [1]; log[Lu AF60097] -7.8213): 0.9058 | Displacement of [3H]S-CIT binding (normalized bound, Fig S6) (SERT WT [1]; log[Lu AF60097] -8.2985): 0.9777 and 0.9058 | Displacement of [3H]S-CIT binding (normalized bound, Fig S6) (SERT WT [1]; log[Lu AF60097] -9): 0.999 and 0.9777 | ΔAP (mut/WT), change in allosteric potency relative to SERT WT (SERT E494Q; E494Q, [^3H]IMI dissociation): 5 | IC50 (SERT E494Q; SERT E494Q, read-out: Allosteric potency inhibition of [^3H]IMI dissociation (IC50)): 170 nM | [^3H]S-CIT dissociation relative to control (source data Fig 3B) (SERT WT [2]; log conc -4): 0.1541 and 0.1918 and 0.2298 | [^3H]S-CIT dissociation relative to control (source data Fig 3B) (SERT WT [2]; log conc -4.47756): 0.2646 and 0.3943 and 0.2986 and 0.219 and 0.3366 | [^3H]S-CIT dissociation relative to control (source data Fig 3B) (SERT WT [2]; log conc -4.95468): 0.4248 and 0.6032 and 0.3921 and 0.3044 and 0.3481 | [^3H]S-CIT dissociation relative to control (source data Fig 3B) (SERT WT [2]; log conc -5.4318): 0.6087 and 0.8042 and 0.6275 and 0.541 and 0.6453 | [^3H]S-CIT dissociation relative to control (source data Fig 3B) (SERT WT [2]; log conc -5.9101): 0.7519 and 0.9034 and 0.8094 and 0.7437 and 0.8779 | [^3H]S-CIT dissociation relative to control (source data Fig 3B) (SERT WT [2]; log conc -6.38561): 0.8673 and 0.9045 and 0.9664 and 0.838 and 0.8643 | [^3H]S-CIT dissociation relative to control (source data Fig 3B) (SERT WT [2]; log conc -6.86273): 0.9943 and 0.9294 and 0.9623 | IC50 (SERT WT [2]; read-out: Allosteric potency inhibition of [^3H]S-CIT dissociation (IC50)): 6500 nM
